Reference: paper PMC8954350, “Non-Canonical Cannabinoid Receptors with Distinct Binding and Signaling Properties in Prostate and Other Cancer Cell Types Mediate Cell Death” (International Journal of Molecular Sciences, 2022)
Several values for one entry are separate records, joined by “and”; a condition that tells them apart may be missing. Equal values may be shown once. Marks after values point to notes of the source that are not given here.

How the values were obtained:
[1] = test system: CBRs expressed in PC-3 membranes; assay: [^35S]GTPγS binding, PC-3 membranes; format: biochemical, human; settings: 10 μM
Experimental: [^35S]GTPγS binding experiments were conducted to examine G protein modulation by cannabinoids in prostate cancer cell lines DU-145 and PC-3, as detailed previously. Briefly, CHO-hCB2 (50 μg), PC3 (100 μg), or DU-145 (100 μg) membrane homogenates were incubated with a single receptor-saturating concentration (10^−5 M) of cannabinoid ligands to be examined and 0.1 nM [^35S]GTPγS in incubation buffer (20 mM HEPES buffer, pH 7.4, 10 μM GDP, 100 mM NaCl, 0.1% bovine serum albumin, and 10 mM MgCl2). Non-specific binding was defined as radioactivity remaining in the presence of 10 μM of non-radioactive GTPγS and subtracted from total binding to determine specific [^35S]GTPγS binding. All binding reactions were conducted in triplicate, in a final volume of 1 mL, and, following mixing, were incubated for 30 min at 30 °C. After incubation, reactions were terminated by rapid vacuum filtration through Whatman GF/B glass fiber filters (Brandel; Gaithersburg, MD, USA), followed by three washes of 4 mls of ice-cold filtration buffer (50 mM Tris, pH 7.4, and 0.05% bovine serum albumin). Samples were punched out from filter papers into scintillation vials, to which 4 mls of ScintiverseTM-BDR cocktail scintillation fluid (Fisher Scientific; Hampton, NH, USA) was added. Filters were incubated at room temperature for 24 h in scintillation fluid, vortexed, and radioactivity (measured as DPMs) was determined via a liquid scintillation spectrophotometer (Tri Carb 2100 TR Liquid Scintillation Analyzer, Packard Instruments, Meriden, CT, USA).

[2] = test system: CBRs expressed in PC-3 cells; assay: Adenylyl cyclase modulation in whole PC-3 cells; format: cell-based, human; settings: 10 μM, with or without pertussis toxin
Experimental: (§1) These experiments were conducted to examine modulation of adenylyl cyclase activity by cannabinoid ligands in prostate cancer cell lines DU-145 and PC-3, as described earlier. CHO-hCB2, DU-145, or PC-3 cells were seeded into 24 well plates at a density of 8 × 10^6 cells per plate in growth media (DMEM for DU-145 and CHO-hCB2 cells or F12-K for PC-3 cells). Growth media contained FetalPlex (10%) and 1% pennicillin/streptomycin. Cells were cultured overnight in a humidified incubator maintained at 37 °C with 5% CO2. For some experiments, a subset of wells were treated overnight with pertussis toxin (2 μL/mL) to abolish Gi/Go protein-mediated signaling. Following overnight incubation, growth media was replaced with an incubation media containing either DMEM (for DU-145 and CHO-hCB2) or F12-K (for PC-3) with 0.9 g/l NaCl, 2.5 μCi/mL of [^3H]adenine, and 0.5 mM IBMX, and cells were kept in a humidified incubator maintained at 37 °C with 5% CO2 for 4 h. […] Finally, 10 mL of Scintiverse^TM BD Cocktail scintillation fluid (Fisher Scientific; Hampton, NH, USA) was added to eluates and radioactivity (quantified as DPMs) was quantified via a liquid scintillation spectrophotometer (Tri Carb 2100 TR Liquid Scintillation Analyzer, Packard Instruments, Meriden, CT, USA).

[3] = test system: CBRs expressed in DU-145 cells; assay: Adenylyl cyclase modulation in whole DU-145 cells; format: cell-based, human; settings: 10 μM, with or without pertussis toxin
Experimental: as §1

[4] = test system: DU-145 cells; assay: Mitochondrial membrane potential (JC-1 staining), DU-145 cells; format: cell-based, human; settings: 24 h; for mitochondrial membrane potential (MMP) depolarization: JC-1
[5] = target: CBRs expressed in DU-145 membranes; format: binding, human
Experimental: (§2) The assay was performed as previously detailed. […] All binding reactions were conducted in triplicate, in a final volume of 1 mL, and, following mixing, were incubated for 20 min in a 37 °C water bath to achieve equilibrium. After incubation, reactions were terminated by rapid vacuum filtration and processed for radioactivity, as detailed in Section 4.5.1.
(§3) Curve-fitting and all statistical analyses were performed using GraphPad Prism® v8.0g (GraphPad Software, Inc.; San Diego, CA, USA). […] For CBR screening studies, a one-sample t-test was performed to determine differences from 100% (e.g., to quantify compounds producing displacement), followed by a one-way ANOVA and Tukey’s post hoc tests to compare displacement produced by all drugs. […] To compare specific CBR affinity (Ki) between ligands, non-linear regression analysis was employed to determine experimental IC50 values from competition receptor binding assays, which were then converted to Ki values using the Cheng–Prusoff equation [35]. Ki values were converted to pKi values so that parametric tests could be used and statistically compared by employing a one-way ANOVA followed by Tukey’s post hoc test. For statistical analyses of [^35S]GTPγS, adenylyl cyclase, and chronic experiments, a one-sample t-test was performed to detect differences from 100% (e.g., basal levels), followed by comparison of all means by a one-way ANOVA and Tukey’s post hoc test. For LDH release, ATP-dependent cell viability and JC-1 staining assays, drug effects were first analyzed by a one-sample t-test to determine differences from 0 or 100% (vehicle), followed by a one-way ANOVA and Dunnett’s post hoc test to compare all means. Significance for all statistical tests was defined at a minimal level of p < 0.05.

[6] = target: CBRs expressed in PC-3 membranes; format: binding, human
Experimental: as §2, §3

SMILES	modulation of [^35S]GTPγS binding [1]	change in forskolin-stimulated intracellular cAMP levels [2]	change in forskolin-stimulated intracellular cAMP levels [3]	mitochondrial membrane potential (MMP) depolarization ([4]; 10 μM)	mitochondrial membrane potential (MMP) depolarization ([4]; 50 μM)	Ki [5]	pKi (−log Ki) [5]	Ki [6]	pKi (−log Ki) [6]	MMP on co-incubation with GW-405833 (10 μM) ([4]; 10 μM ligand co-incubated)
Cc1c(C(=O)c2cccc3ccccc23)c2cccc3c2n1[C@H](CN1CCOCC1)CO3 [WIN-55,212-2]	neither the agonist at canonical CB1/CB2 receptors WIN-55-212-2 (10 μM) nor the CB2-selective agonist GW-405-833 (10 μM) increased [^35S]GTPγS binding	neither WIN-55-212-2 nor rimonabant significantly altered intracellular cAMP levels	neither WIN-55-212-2 nor rimonabant significantly altered intracellular cAMP levels	produced effects only at 50 μM	produced effects only at 50 μM					
COc1ccc2c(c1)c(CCN1CCOCC1)c(C)n2C(=O)c1cccc(Cl)c1Cl [GW-405833]	neither the agonist at canonical CB1/CB2 receptors WIN-55-212-2 (10 μM) nor the CB2-selective agonist GW-405-833 (10 μM) increased [^35S]GTPγS binding					~290 nM and 290 nM	6.5 ± 0.12 ^b	296 nM	6.47 ± 0.17 ^b	
Cc1c(C(=O)NN2CCCCC2)nn(-c2ccc(Cl)cc2Cl)c1-c1ccc(Cl)cc1 [rimonabant]	did reduce [^35S]GTPγS binding below basal levels	neither WIN-55-212-2 nor rimonabant significantly altered intracellular cAMP levels	neither WIN-55-212-2 nor rimonabant significantly altered intracellular cAMP levels	reduced MMP		102 nM	7.04 ± 0.15 ^a	54.1 nM		MMP was not significantly reduced from vehicle-treated levels
